# Measured values reported in paper PMC12367851, “In vitro CB1 receptor activity of halogenated indazole synthetic cannabinoid receptor agonists” (Archives of Toxicology, 2025).
# Like-named read-outs stand apart in the source and are kept apart here.
# Key:
# human CB1 receptor = human CB1 receptor (Homo sapiens, UniProt P21554); test: AequoScreen CB1 assay (intracellular Ca2+ release, CHO-K1 cells, apoaequorin/Gα16); conditions: for Emax: CHO-K1, read-out: Efficacy (% of JWH-018) Emax; for Efficacy (Emax) Mean Diff: Brown-Forsythe and Welch ANOVA; for fold difference of each other (potency): brominated SCRAs with pent-4-enyl, butyl and pentyl tails; for fold less potent than the butyl (ADB-5′Br-BUTINACA): brominated ADB SCRAs with different tails; for fold weaker in potency than JWH-018: EC50 ratio vs JWH-018
# CB1 receptor [1] = biological target: CB1 receptor; design: method as in Deventer et al. [2023b]; conditions: AequoScreen / Ca2+ release assay, ref Deventer et al. [2023b], cited from earlier work
# CB1 receptor [2] = conditions: β-arrestin 2 recruitment, cited from earlier work
# [3] = Compound 1 vs Compound 2 = AB-5’Cl-BUTINACA
# [4] = Compound 1 vs Compound 2 = ADB-5’Br-BUTINACA
# [5] = Compound 1 vs Compound 2 = MDMB-5’Br-BUTINACA
# [6] = Compound 1 vs Compound 2 = ADB-5’Cl-BUTINACA
# [7] = Compound 1 vs Compound 2 = MDMB-5’Cl-BUTINACA
# [8] = Compound 1 vs Compound 2 = MMB-5’Cl-BUTINACA
# [9] = Compound 1 vs Compound 2 = ADB-5’F-BUTINACA
# [10] = Compound 1 vs Compound 2 = MDMB-5’F-BUTINACA
# [11] = Compound 1 vs Compound 2 = MMB-5’F-BUTINACA
# [12] = Compound 1 vs Compound 2 = MDMB-4en-5’Br-PINACA (also printed MDMB-5’Br-4en-PINACA)
# [13] = ref Deventer et al. [2023b], read-out: EC50
# [14] = Compound 1 vs Compound 2 = ADB-4en-5’Br-PINACA
# [15] = Compound 1 vs Compound 2 = ADB-5’Br-FUBINACA
# [16] = Compound 1 vs Compound 2 = ADB-5’Br-PINACA
# [17] = Compound 1 vs Compound 2 = ADB-BUTINACA
# [18] = EC50 ratio vs non-halogenated analog ADB-BUTINACA
# [19] = Compound 1 vs Compound 2 = MDMB-BUTINACA
# [20] = Compound 1 vs Compound 2 = MDMB-INACA
# Sequence of human CB1 receptor (P21554 whole entry): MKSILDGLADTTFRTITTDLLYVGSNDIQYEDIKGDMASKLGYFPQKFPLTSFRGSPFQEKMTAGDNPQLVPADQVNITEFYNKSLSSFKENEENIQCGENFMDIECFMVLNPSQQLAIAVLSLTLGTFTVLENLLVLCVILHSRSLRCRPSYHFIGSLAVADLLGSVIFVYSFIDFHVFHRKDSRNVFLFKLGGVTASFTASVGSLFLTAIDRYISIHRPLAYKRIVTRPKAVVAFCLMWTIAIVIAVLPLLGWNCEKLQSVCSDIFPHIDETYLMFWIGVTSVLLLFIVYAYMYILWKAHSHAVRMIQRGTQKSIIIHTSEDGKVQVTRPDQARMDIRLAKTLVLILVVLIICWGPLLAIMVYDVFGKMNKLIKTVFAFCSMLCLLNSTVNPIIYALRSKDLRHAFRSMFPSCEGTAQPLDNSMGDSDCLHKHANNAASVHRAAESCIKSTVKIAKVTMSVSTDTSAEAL
smiles,measurement,setting,value
CCCCn1nc(C(=O)NC(C(N)=O)C(C)C)c2cc(Br)ccc21 (stereo not drawn) [AB-5′Br-BUTINACA],EC50,human CB1 receptor,44.6 nM
same,Emax,human CB1 receptor,115%
same,Efficacy (Emax) Mean Diff,human CB1 receptor; [3],2.92
same,Efficacy (Emax) Mean Diff,human CB1 receptor; Compound 1 vs Compound 2 = AB-5’F-BUTINACA,7.90
same,Efficacy (Emax) Mean Diff,human CB1 receptor; [4],5.08
same,Efficacy (Emax) Mean Diff,human CB1 receptor; [5],1.26
same,Efficacy (Emax) Mean Diff,human CB1 receptor; Compound 1 vs Compound 2 = MMB-5’Br-BUTINACA,9.47
CCCCn1nc(C(=O)NC(C(N)=O)C(C)C)c2cc(Cl)ccc21 (stereo not drawn) [AB-5′Cl-BUTINACA],EC50,human CB1 receptor,57.7 nM
same,Emax,human CB1 receptor,112%
same,Efficacy (Emax) Mean Diff,human CB1 receptor; [6],-0.67
same,Efficacy (Emax) Mean Diff,human CB1 receptor; [7],2.14
same,Efficacy (Emax) Mean Diff,human CB1 receptor; [8],2.74
CCCCn1nc(C(=O)NC(C(N)=O)C(C)C)c2cc(F)ccc21 (stereo not drawn) [AB-5′F-BUTINACA],EC50,human CB1 receptor,18.7 nM
same,Emax,human CB1 receptor,107%
same,Efficacy (Emax) Mean Diff,human CB1 receptor; [3],-4.99
same,Efficacy (Emax) Mean Diff,human CB1 receptor; [9],-6.01
same,Efficacy (Emax) Mean Diff,human CB1 receptor; [10],-4.12
same,Efficacy (Emax) Mean Diff,human CB1 receptor; [11],0.24
"C=CCCCn1nc(C(=O)NC(C(N)=O)C(C)(C)C)c2cc(Br)ccc21 (stereo not drawn) [ADB-4en-5′Br-PINACA, N-(1-amino-3,3-dimethyl-1-oxobutan-2-yl)−5-bromo-1-(pent-4-en-1-yl)−1H-indazole-3-carboxamide]",EC50,human CB1 receptor,14.2 nM
same,Emax,human CB1 receptor,111%
same,Efficacy (Emax) Mean Diff,human CB1 receptor; [12],-8.94
same,fold difference of each other (potency),human CB1 receptor,≤ 1.4 fold
"CCCCn1nc(C(=O)NC(C(N)=O)C(C)(C)C)c2cc(Br)ccc21 (stereo not drawn) [ADB-5′Br-BUTINACA, N-[1-amino-3,3-dimethyl-1-oxobutan-2-yl]−5-bromo-1-butyl-1H-indazole-3-carboxamide]",EC50,CB1 receptor [1]; read-out: EC50,12.5 nM
same,EC50,CB1 receptor [2]; [13],82.1 nM
same,EC50,human CB1 receptor,18 nM
same,Emax,human CB1 receptor,110%
same,Efficacy (Emax) Mean Diff,human CB1 receptor; [14],-1.26
same,Efficacy (Emax) Mean Diff,human CB1 receptor; [15],-2.30
same,Efficacy (Emax) Mean Diff,human CB1 receptor; [16],1.84
same,Efficacy (Emax) Mean Diff,human CB1 receptor; [6],-2.84
same,Efficacy (Emax) Mean Diff,human CB1 receptor; [9],-3.19
same,Efficacy (Emax) Mean Diff,human CB1 receptor; [17],-15.66
same,Efficacy (Emax) Mean Diff,human CB1 receptor; [5],-3.82
same,fold more potent than ADB-BUTINACA,human CB1 receptor; [18],1.2 fold
same,fold difference of each other (potency),human CB1 receptor,≤ 1.4 fold
CC(C)(C)C(NC(=O)c1nn(Cc2ccc(F)cc2)c2ccc(Br)cc12)C(N)=O (stereo not drawn) [ADB-5′Br-FUBINACA],EC50,human CB1 receptor,42.1 nM
same,Emax,human CB1 receptor,112%
same,Efficacy (Emax) Mean Diff,human CB1 receptor; [14],1.04
same,Efficacy (Emax) Mean Diff,human CB1 receptor; [16],4.13
same,fold less potent than the butyl (ADB-5′Br-BUTINACA),human CB1 receptor; EC50 ratio,2.3 fold
"CC(C)(C)C(NC(=O)c1n[nH]c2ccc(Br)cc12)C(N)=O (stereo not drawn) [ADB-5′Br-INACA, N-[1-amino-3,3-dimethyl-1-oxobutan-2-yl]−5-bromo-1H-indazole-3-carboxamide]",EC50,human CB1 receptor,2290 nM
same,Emax,human CB1 receptor,111%
same,Efficacy (Emax) Mean Diff,human CB1 receptor; [14],-0.21
same,Efficacy (Emax) Mean Diff,human CB1 receptor; [4],1.04
same,Efficacy (Emax) Mean Diff,human CB1 receptor; [15],-1.25
same,Efficacy (Emax) Mean Diff,human CB1 receptor; [16],2.88
same,fold weaker in potency than JWH-018,human CB1 receptor,100 fold
same,fold less potent than the butyl (ADB-5′Br-BUTINACA),human CB1 receptor; EC50 ratio,127 fold
"CCCCCn1nc(C(=O)NC(C(N)=O)C(C)(C)C)c2cc(Br)ccc21 (stereo not drawn) [ADB-5′Br-PINACA, N-(1-amino-3,3-dimethyl-1-oxobutan-2-yl)−5-bromo-1-pentyl-1H-indazole-3-carboxamide]",EC50,human CB1 receptor,19.8 nM
same,Emax,human CB1 receptor,108%
same,Efficacy (Emax) Mean Diff,human CB1 receptor; [14],-3.10
same,fold difference of each other (potency),human CB1 receptor,≤ 1.4 fold
CCCCn1nc(C(=O)NC(C(N)=O)C(C)(C)C)c2cc(Cl)ccc21 (stereo not drawn) [ADB-5′Cl-BUTINACA],EC50,human CB1 receptor,30.1 nM
same,Emax,human CB1 receptor,113%
same,Efficacy (Emax) Mean Diff,human CB1 receptor; [17],-12.82
same,Efficacy (Emax) Mean Diff,human CB1 receptor; [7],2.80
same,fold less potent than ADB-BUTINACA,human CB1 receptor; [18],1.4 fold
CCCCn1nc(C(=O)NC(C(N)=O)C(C)(C)C)c2cc(F)ccc21 (stereo not drawn) [ADB-5′F-BUTINACA],EC50,CB1 receptor [1]; read-out: EC50,18.3 nM
same,EC50,CB1 receptor [2]; [13],28.8 nM
same,EC50,human CB1 receptor,14.4 nM
same,Emax,human CB1 receptor,113%
same,Efficacy (Emax) Mean Diff,human CB1 receptor; [6],0.36
same,Efficacy (Emax) Mean Diff,human CB1 receptor; [17],-12.47
same,Efficacy (Emax) Mean Diff,human CB1 receptor; [10],1.89
same,fold more potent than ADB-BUTINACA,human CB1 receptor; [18],1.5 fold
"CCCCn1nc(C(=O)NC(C(N)=O)C(C)(C)C)c2ccccc21 (stereo not drawn) [ADB-BUTINACA, reference compound]",EC50,CB1 receptor [1]; read-out: EC50,11.5 nM
same,EC50,"CB1 receptor [2]; ref Sparkes et al. [2022], read-out: EC50",7.72 nM
same,EC50,human CB1 receptor,21.5 nM
same,Emax,human CB1 receptor,126%
"CC(C)(C)[C@H](NC(=O)c1n[nH]c2ccccc12)C(N)=O [ADB-INACA, reference compound]",EC50,CB1 receptor [1],did not reach saturation
same,EC50,CB1 receptor [2]; ref Deventer et al. [2023b],did not reach saturation
"C=CCCCn1nc(C(=O)NC(C(=O)OC)C(C)(C)C)c2cc(Br)ccc21 (stereo not drawn) [MDMB-4en-5′Br-PINACA, methyl 2-{[5-bromo-1-(pent-4-en-1-yl)−1H-indazole-3-carbonyl]amino}−3,3-dimethylbutanoate]",EC50,human CB1 receptor,44.6 nM
same,Emax,human CB1 receptor,120%
same,Efficacy (Emax) Mean Diff,human CB1 receptor; Compound 1 vs Compound 2 = MDMB-4en-PINACA,11.19
same,fold less potent than MDMB-4en-PINACA,human CB1 receptor; EC50 ratio vs non-halogenated analog MDMB-4en-PINACA,2.5 fold
same,fold difference of each other (potency),human CB1 receptor,≤ 1.4 fold
"C=CCCCn1nc(C(=O)NC(C(=O)OC)C(C)(C)C)c2ccccc21 (stereo not drawn) [MDMB-4en-PINACA, reference compound]",EC50,human CB1 receptor,17.9 nM
same,Emax,human CB1 receptor,109%
CCCCn1nc(C(=O)NC(C(=O)OC)C(C)(C)C)c2cc(Br)ccc21 (stereo not drawn) [MDMB-5′Br-BUTINACA],EC50,human CB1 receptor,42.4 nM
same,Emax,human CB1 receptor,114%
same,Efficacy (Emax) Mean Diff,human CB1 receptor; [12],-6.38
same,Efficacy (Emax) Mean Diff,human CB1 receptor; [7],3.79
same,Efficacy (Emax) Mean Diff,human CB1 receptor; [10],2.52
same,Efficacy (Emax) Mean Diff,human CB1 receptor; [19],-7.53
same,fold less potent than MDMB-BUTINACA,human CB1 receptor; EC50 ratio vs non-halogenated analog MDMB-BUTINACA,4.8 fold
same,fold difference of each other (potency),human CB1 receptor,≤ 1.4 fold
"COC(=O)C(NC(=O)c1n[nH]c2ccc(Br)cc12)C(C)(C)C (stereo not drawn) [MDMB-5′Br-INACA, methyl 2-[5-bromo-1H-indazole-3-carboxamido]−3,3-dimethylbutanoate]",EC50,human CB1 receptor,2200 nM
same,Emax,human CB1 receptor,110%
same,Efficacy (Emax) Mean Diff,human CB1 receptor; [20],-2.31
same,fold weaker in potency than JWH-018,human CB1 receptor,100 fold
same,fold more potent than MDMB-INACA,"human CB1 receptor; EC50 ratio, tail-less SCRAs",1.7 fold
CCCCn1nc(C(=O)NC(C(=O)OC)C(C)(C)C)c2cc(Cl)ccc21 (stereo not drawn) [MDMB-5′Cl-BUTINACA],EC50,human CB1 receptor,10.6 nM
same,Emax,human CB1 receptor,110%
same,Efficacy (Emax) Mean Diff,human CB1 receptor; [19],-11.32
CCCCn1nc(C(=O)NC(C(=O)OC)C(C)(C)C)c2cc(F)ccc21 (stereo not drawn) [MDMB-5′F-BUTINACA],EC50,human CB1 receptor,5.75 nM
same,Emax,human CB1 receptor,111%
same,Efficacy (Emax) Mean Diff,human CB1 receptor; [7],1.27
same,Efficacy (Emax) Mean Diff,human CB1 receptor; [19],-10.05
"COC(=O)C(NC(=O)c1n[nH]c2ccc(C)cc12)C(C)(C)C (stereo not drawn) [MDMB-5′Me-INACA, methyl 3,3-dimethyl-2-[(5-methyl-1H-indazole-3-carbonyl)amino]butanoate]",EC50,human CB1 receptor,1370 nM
same,Emax,human CB1 receptor,113%
same,Efficacy (Emax) Mean Diff,human CB1 receptor; Compound 1 vs Compound 2 = MDMB-5’Br-INACA,3.46
same,Efficacy (Emax) Mean Diff,human CB1 receptor; [20],1.15
same,fold more potent than MDMB-5′Br-INACA,"human CB1 receptor; EC50 ratio, tail-less SCRAs",1.6 fold
same,fold more potent than MDMB-INACA,"human CB1 receptor; EC50 ratio, tail-less SCRAs",2.7 fold
"CCCCn1nc(C(=O)NC(C(=O)OC)C(C)(C)C)c2ccccc21 (stereo not drawn) [MDMB-BUTINACA, reference compound]",EC50,human CB1 receptor,8.9 nM
same,Emax,human CB1 receptor,121%
"COC(=O)C(NC(=O)c1n[nH]c2ccccc12)C(C)(C)C (stereo not drawn) [MDMB-INACA, reference compound]",EC50,human CB1 receptor,3690 nM
same,Emax,human CB1 receptor,112%
CCCCn1nc(C(=O)NC(C(=O)OC)C(C)C)c2cc(Br)ccc21 (stereo not drawn) [MMB-5′Br-BUTINACA],EC50,human CB1 receptor,259 nM
same,Emax,human CB1 receptor,105%
same,Efficacy (Emax) Mean Diff,human CB1 receptor; [4],-4.38
same,Efficacy (Emax) Mean Diff,human CB1 receptor; [8],-3.81
same,Efficacy (Emax) Mean Diff,human CB1 receptor; [11],-1.32
CCCCn1nc(C(=O)NC(C(=O)OC)C(C)C)c2cc(Cl)ccc21 (stereo not drawn) [MMB-5′Cl-BUTINACA],EC50,human CB1 receptor,148 nM
same,Emax,human CB1 receptor,109%
same,Efficacy (Emax) Mean Diff,human CB1 receptor; [6],-3.40
same,Efficacy (Emax) Mean Diff,human CB1 receptor; [7],-0.60
CCCCn1nc(C(=O)NC(C(=O)OC)C(C)C)c2cc(F)ccc21 (stereo not drawn) [MMB-5′F-BUTINACA],EC50,human CB1 receptor,26.4 nM
same,Emax,human CB1 receptor,107%
same,Efficacy (Emax) Mean Diff,human CB1 receptor; [9],-6.25
same,Efficacy (Emax) Mean Diff,human CB1 receptor; [10],-4.36
same,Efficacy (Emax) Mean Diff,human CB1 receptor; [8],-2.49
"CCCCCCCCCCn1nc(C(=O)NC(C(N)=O)C(C)(C)C)c2cc(Br)ccc21 (stereo not drawn) [N-(1-amino-3,3-dimethyl-1-oxobutan-2-yl)−5-bromo-1-decyl-1H-indazole-3-carboxamide]","Potency (EC50, nM)","human CB1 receptor; three-parameter logistic fit, n ≥ 3, triplicate, racemic standards",not even reaching saturation
